Results published in patent US5596016A, “1,2-disubstituted aromatic chelates” (Albion International, Inc., priority 1994, dated 1997).
“Also recorded” adds a separate entry of the source.

Legend:
Rats = experiment: Observation of rats over 48 hours after oral dosing; type: in vivo
Experimental: (§1) Bioavailability: One gram samples of each of the above iron vanillin chelates and ferrous sulfate sales were administered orally to rats as a slurry consisting of one gram of sample contained in 4 ml of water. The samples were given via a syringe fitted with a balled needle and injected into the stomach of the animals. Each one gram sample of 15% iron would deliver 150 mg of Fe which is ten times the recommended daily allowance of iron for a human being of average size. Obviously, such a dosage is many times higher than required for the test animals considering that the rats weighed an average of about 125 grams each. One sample of two grams of chelate suspended as a slurry in 8 ml of water was found too be too much volume and overfilled the stomach of the rat resulting in the loss of some of the dosage.
(§2) The animals were observed over a two day (48 hour) period and their urine and feces were collected. At the end of the 48 hour period the animals were sacrificed and blood samples were taken.

[1] = Iron excretion in urine after oral dosing, sample in ml (Table 3); type: in vivo, rats; conditions: one gram sample of 15% iron
Experimental: as §1, §2
(§3) There follows a comparison of the urine, feces and blood tests taken from the rats at 24 and 48 hours post dosage.

[2] = Iron excretion after oral dosing, sample weighed in grams (Table 2, headed Urine; evidently feces); type: in vivo, rats; conditions: for Urine: Total Mg Fe (per Total Gm Sample): oral, one gram sample of 15% iron
Experimental: as §1, §2, §3

ferrous sulfate [FeSO4]
appearance and behavior of rats (Rats; 48 hour period, one gram sample of 15% iron, oral): appeared listless and produced little urine and feces; also recorded: listless, non-reactive, retired and demonstrated abnormal breathing behavior | time without food or water consumption post dosage (Rats; one gram sample of 15% iron, oral): approximately 26 hours | time to hematuria following dosage (Rats; one of the ferrous sulfate fed rats): ≤ 2.5 h | Urine: Total Mg Fe (per Total Ml Sample) ([1]; 24 hours): 0.020 Mg Fe | Urine: Total Mg Fe (per Total Ml Sample) ([1]; 48 hours): 0.010 Mg Fe | Urine: Total Mg Fe (per Total Gm Sample) ([2]; 24 hours): 1.18 Mg Fe | Urine: Total Mg Fe (per Total Gm Sample) ([2]; 48 hours): 61.6 Mg Fe | excretion of iron in the feces ([2]; after 48 hours, versus iron vanillate): much higher excretion of iron in the feces
